Our source for the EC90 and CC50 values is patent US8859756B2, “Stereoselective synthesis of phosphorus containing actives” (Gilead Pharmasset LLC, priority 2010, dated 2014).

Like-named read-outs stand apart in the source and are kept apart here.

Holding throughout (type): cell-based
One data set relates to HCV RNA replication. Description: HCV Inhibition Assay (replicon; RT-PCR or luciferase reporter readout). The settings on record: concentration for 90% inhibition of HCV replication, Clone A or ET-lunet replicon cells, 4 days. As for the experimental part: Clone A or ET-lunet cells were seeded at a density of 1500 or 3000 cells per well in a 96-well plate, respectively. Test compounds serially diluted in culture medium without G418 were added to cells so that the final DMSO concentration was 0.5%. Plates were incubated at 37° C. in a 5% CO2 atmosphere for 4 days. Inhibition of HCV RNA replication was determined by real time PCR (RT-PCR) or by measuring the levels of luminescence expressed via the luciferase reporter gene encoded within the ET replicon. Briefly, for the RT-PCR assay, total RNA was extracted using the RNeasy-96 kit as recommended by the manufacturer (Qiagen, Valencia, Calif.), reversed transcribed into cDNA, and amplified using primer and probe mix for HCV 5′-NTR RNA and human ribosomal RNA (rRNA) in a one-step RT-PCR reaction as described previously (Stuyver, L. J. et al. Antiviral Chem. Chemother. (2006) 17, 79-87). A relative quantification method was used to determine the extent of inhibition. The threshold cycle (Ct) of rRNA was subtracted from the Ct of HCV RNA (ΔCt). The average ΔCt of the DMSO cell controls was then subtracted from the ΔCt of the compound treated sample (ΔΔCt). Percent inhibition was determined by using the following equation: %=(1−(2^−ΔΔC^t))×100. For the luciferase-based replicon assay, luminescence was measured by using a Victor3 plate reader (Perkin-Elmer, Boston, Mass.) following the addition of Bright-Glo reagent as recommended by the manufacturer (Promega, Madison, Wis.). Percent inhibition of HCV replication was determined by comparing the change in luminescence of the drug treated wells versus the DMSO cell controls. EC50 and EC90 values, the concentrations at which 50% and 90% inhibition were achieved, were determined using the GraphPad Prism software (San Diego, Calif.).

Data set [1] is described as follows: Cell Cytotoxicity Assays (MTS dye). The settings on record: human, 50% inhibition value, cell line not given; for CC50: 8 days. Here is the method:
(§1) Cell Cytotoxicity Assays.
(§2) Each compound (serially diluted from 100 μM) was added to Huh7 (2×10^3 cells/well), HepG2 (2×10^3 cells/well), BxPC3 (2×10^3 cells/well), or CEM (5×10^3 cells/well) cells and allowed to incubate for 8 days at 37° C. A medium only control was used to determine the minimum absorbance value […]. At the end of the growth period, MTS dye from the CellTiter 96 Aqueous One Solution Cell Proliferation Assay kit (Promega) was added to each well and the plate was incubated for an additional 2 hours. The absorbance at 490 nm was read with a Victor3 plate reader (Perkin Elmer) using the medium only control wells as blanks. The 50% inhibition value (CC50) was determined by comparing the absorbance in wells containing cells and test compound to untreated cell control wells.
Background: Tetrazolium assays rely on reduction of a dye to a coloured formazan, in cell work by metabolically active cells.

The nature of data set [2]: Cytotoxicity, MTT Assay (table footnote a).
Data set [3] concerns Huh7, HepG2, BxPC3, or CEM cells. As to the kind of experiment: Cell Cytotoxicity Assays (MTS dye). The settings on record: 50% inhibition value, 8 days, cell line not given. As for the experimental part: as §1, §2
The mark [4] stands for this setting: Hepatitis C virus, 96 h, read-out: EC90.

The term EC90 denotes the concentration needed for an effect of 90%. Usually CC50 stands for the concentration giving 50% cytotoxicity. Lower therefore signals harm at low concentration. As for `COc1nc(N)nc2c1ncn2[C@@H]1O[C@H](COP(=O)(N[C@@H](C)C(=O)OCC(C)(C)C)Oc2cccc3ccccc23)[C@@H](O)[C@@]1(C)O` (stereo partly drawn) [Compound 137, (2S)-neopentyl 2-(((((2R,3R,4R,5R)-5-(2-amino-6-methoxy-9H-purin-9-yl)-3,4-dihydroxy-4-methyltetrahydrofuran-2-yl)methoxy)(naphthalen-1-yloxy)phosphoryl)amino)propanoate], the EC90 with HCV RNA replication (Hepatitis C virus, 96 h) was 1.7 nM. The CC50 at 8 days in data set [1] was above 1000 nM.

`COc1nc(N)nc2c1ncn2[C@@H]1O[C@H](COP(=O)(N[C@@H](C)C(=O)OCC(C)(C)C)Oc2cccc3ccccc23)[C@@H](O)[C@@]1(C)F` (stereo partly drawn) [Compound 140, (2S)-neopentyl 2-(((((2R,3R,4R,5R)-5-(2-amino-6-methoxy-9H-purin-9-yl)-4-fluoro-3-hydroxy-4-methyltetrahydrofuran-2-yl)methoxy)(naphthalen-1-yloxy)phosphoryl)amino)propanoate] showed an EC90 in the data set with HCV RNA replication (Hepatitis C virus, 96 h) of 3.5 nM. The CC50 at 8 days in data set [1] is above 20000 nM.

Turning to `CNC(=O)c1c(-c2ccc(F)cc2)oc2cc(N(CCO)S(C)(=O)=O)c(C3CC3)cc12` [Compound 44, 5-cyclopropyl-2-(4-fluorophenyl)-6-[(2-hydroxyethyl)(methylsulfonyl)amino]-N-methyl-3-Benzofurancarboxamide, reference compound], in the data set with HCV RNA replication (setting [4]), the 90% effect concentration (EC90) is 20 nM. This compound also showed a 50% cytotoxic concentration (CC50) in data set [2] above 10000 nM.

Turning to `CC(C)OC(=O)[C@H](C)N[P@](=O)(OC[C@H]1O[C@@H](n2ccc3c(N)ncnc32)[C@](C)(O)[C@@H]1O)Oc1ccccc1` [Compound 139, (S)-2-{(S)-[(2R,3R,4R,5R)-5-(4-amino-pyrrolo[2,3-d]pyrimidin-7-yl)-3,4-dihydroxy-4-methyl-tetrahydro-furan-2-ylmethoxy]-phenoxy-phosphorylamino}-propionic acid isopropyl ester], in the data set with HCV RNA replication (setting [4]), the concentration for an effect of 90% (EC90) was found to be 20 nM. For the same compound, the CC50 in data set [1] is above 10000 nM.

For the compound `COc1nc(N)nc2c1ncn2[C@@H]1O[C@H](COP(=O)(N[C@@H](C)C(=O)OCC(C)(C)C)Oc2cccc3ccccc23)[C@@H](O)[C@@]1(C)O` (stereo partly drawn) [Compound 137a, (S)-neopentyl 2-(((((2R,3R,4R,5R)-5-(2-amino-6-methoxy-9H-purin-9-yl)-3,4-dihydroxy-4-methyltetrahydrofuran-2-yl)methoxy)(naphthalen-1-yloxy)phosphoryl)amino)propanoate], the EC90 in the data set with HCV RNA replication (setting [4]) came to 3.7 nM. Also, the 50% cytotoxic concentration (CC50) in data set [1] worked out at 930 nM.

With `COc1nc(N)nc2c1ncn2[C@@H]1O[C@H](COP(=O)(NCc2ccccc2)OCCSC(=O)C(C)(C)CO)[C@@H](O)[C@@]1(C)O` (single isomer, unassigned) [Compound 131b], the EC90 in the data set with HCV RNA replication (read-out: EC90) stood at 186 nM. This compound had a half-maximal cytotoxic concentration (CC50) in data set [3] above 20000 nM.

As for `COc1nc(N)nc2c1ncn2[C@@H]1O[C@H](CO[P@@](=O)(N[C@@H](C)C(=O)OC(C)C)Oc2ccccc2)[C@@H](O)[C@@]1(C)F` [Compound 117, SP-(2S)-isopropyl 2-(((((2R,3R,4R,5R)-5-(2-amino-6-methoxy-9H-purin-9-yl)-4-fluoro-3-hydroxy-4-methyltetrahydrofuran-2-yl)methoxy)(phenoxy)phosphoryl)amino)propanoate], the EC90 with HCV RNA replication (setting [4]) came to 130 nM. For the same compound, in data set [1], the CC50 was above 20000 nM.

Consider `COc1nc(N)nc2c1ncn2[C@@H]1O[C@H](CO[P@@](=O)(N[C@@H](C)C(=O)OC(C)C)Oc2ccccc2)[C@@H](O)[C@@]1(C)O` [Compound 133, (S)-isopropyl 2-(((S)-(((2R,3R,4R,5R)-5-(2-amino-6-methoxy-9H-purin-9-yl)-3,4-dihydroxy-4-methyltetrahydrofuran-2-yl)methoxy)(phenoxy)phosphoryl)amino)propanoate], for which the EC90 in the data set with HCV RNA replication (setting [4]) came out at 78 nM. In addition, the half-maximal cytotoxic concentration (CC50) in data set [1] stood at 4140 nM.

On to `CC(C)OC(=O)[C@H](C)NP(=O)(OC[C@H]1O[C@@H](n2ccc(=O)[nH]c2=O)[C@](C)(F)[C@@H]1O)Oc1ccccc1` (stereo partly drawn) [Compound 110, (S)-2-{[(1R,4R,5R)-5-(2,4-Dioxo-3,4-dihydro-2H-pyrimidin-1-yl)-4-(R)-fluoro-3-hydroxy-4-methyl-tetrahydro-furan-2-ylmethoxy]-phenoxy-phosphorylamino}-propionic acid (S)-isopropyl ester], for which the EC90 in the data set on HCV RNA replication (read-out: EC90) came to 220 nM. This compound also registered a cytotoxic concentration (CC50) in data set [3] above 20000 nM.

For the compound `CC(C)(CO)C(=O)SCCOP(=O)(NCc1ccccc1)OC[C@H]1O[C@@H](n2cnc3c(=O)[nH]c(N)nc32)[C@](C)(O)[C@@H]1O` (single isomer, unassigned) [Compound 132a], in the data set on HCV RNA replication (setting [4]), the 90% effect concentration (EC90) amounted to 300 nM. In data set [1], this compound displayed a CC50 at 8 days above 20000 nM.

For `COc1nc(N)nc2c1ncn2[C@@H]1O[C@H](COP(=O)(NCc2ccccc2)OCCSC(=O)C(C)(C)CO)[C@@H](O)[C@@]1(C)O` (single isomer, unassigned) [Compound 131a], the EC90 with HCV RNA replication (setting [4]) came out at 93 nM. In data set [1], this compound had a half-maximal cytotoxic concentration (CC50) at 8 days above 20000 nM.

Take `CC(C)OC(=O)[C@H](C)N[P@](=O)(OC[C@H]1O[C@@H](n2cnc3c(=O)[nH]c(N)nc32)[C@](C)(O)[C@@H]1O)Oc1ccccc1` [Compound 134, (S)-isopropyl 2-(((S)-(((2R,3R,4R,5R)-5-(2-amino-6-oxo-1H-purin-9(6H)-yl)-3,4-dihydroxy-4-methyltetrahydrofuran-2-yl)methoxy)(phenoxy)phosphoryl)amino)propanoate]: the EC90 in the data set on HCV RNA replication (setting [4]) came out at 560 nM. The cytotoxic concentration (CC50) in data set [1] is above 20000 nM.

Regarding `CC(C)(CO)C(=O)SCCOP(=O)(NCc1ccccc1)OC[C@H]1O[C@@H](n2cnc3c(=O)[nH]c(N)nc32)[C@](C)(O)[C@@H]1O` (single isomer, unassigned) [Compound 132b], the EC90 with HCV RNA replication (read-out: EC90) came to 350 nM. Moreover, the 50% cytotoxic concentration (CC50) in data set [3] was above 20000 nM.

Take `CNC(=O)c1c(-c2ccc(F)cc2)oc2cc(N(CCO[P@@](=O)(N[C@@H](C)C(=O)OC(C)C)Oc3ccccc3)S(C)(=O)=O)c(C3CC3)cc12` [Compound 135, (S)-isopropyl 2-(((S)-(2-(N-(5-cyclopropyl-2-(4-fluorophenyl)-3-(methylcarbamoyl)benzofuran-6-yl)methylsulfonamido)ethoxy)(phenoxy)phosphoryl)amino)propanoate]: in the data set with HCV RNA replication (setting [4]), the 90% effect concentration (EC90) stood at 81 nM. The cytotoxic concentration (CC50) in data set [1] is above 20000 nM.
